“Also recorded” adds a separate entry of the source.
Columns and labels:
[1] = system: Zucker Diabetic Fatty (ZDF) rats; experiment: Glycemic control in ZDF rats, 16-day dosing plus two-week washout (Examples 102, 105); type: in vivo, rat
Protocol: The present examples provides the ability of Compound 10 to restore glycemic control to diabetic Zucker diabetic fatty rats (ZDF rats, genotype ZDF-Lepr^fa/Crl; Charles River). Cornicelli et al., 2005, Charles River.
Control and test compounds were stored at 4° C. and prepared weekly as needed. The vehicle for positive control pioglitazone was 0.25% carboxymethylcellulose and 1% Tween® 80 in reverse osmosis deionized water. The vehicle for Compound 10 was 10% DMSO, 10% Solutol HS 15, and 80% (10% hydroxypropyl-β-cyclodextrin in 50 mM citrate buffer at pH 3.0).
On Day −3, twenty-four ZDF rats (plus eight spare ZDF rats) were measured for body weight and non-fasting glucose. LabDiet 5008 was provided ad libitum throughout the study, except during designated procedures, as was water. In order to minimize the effects of stress on blood glucose and body, all animals including the spares received daily sham doses with phosphate buffered saline pH 7.2 (dose volume 5 mL/kg) via gavage beginning on Study Day −5 to Day −1.
Vehicle, control, and test compound were administered via oral gavage according to the following design on Days 1-16.
On Days −3, 1, 8, and 14 non-fasting blood glucose was measured. On Day 15, an oral glucose tolerance test was administered. The animals were weighed, and the animals were placed in clean cages without food. Access to water was provided throughout the procedure. The animals were fasted for five hours and a blood glucose measurement was determined. The animals were dosed via oral gavage with 2 g/kg glucose (10 mL/kg). Blood glucose was determined via tail snip. The second drop of blood from the animal was placed on a hand-held glucometer (Abbott Alpha Trak) at the following times relative to the glucose dose: zero (just prior to glucose dose), 15, 30, 60, 90, and 120 min. Following the final blood glucose measurement, food was returned to the cages. On Day 17, 4-hour fasting glucose was measured. Serum samples were used to measure insulin by ELISA. Analysis was performed in one to three days of each collections. On Day 17, terminal blood collection was obtained at about 8 mL per animal and measured for blood glucose.
ZDF rats were treated daily with Compound 10, vehicle, or pioglitazone for sixteen days and monitored for an additional two weeks post-treatment until Day 29. STZ rat models were induced through pre-treatment of animals on a high-fat diet with low doses of streptozotocin at Day −14 and Day −7 prior to starting treatment at Day Zero until Day 16. ZDF and STZ rats were monitored for fasting blood glucose levels, oral glucose tolerance test (OGTT), insulin and C-peptide levels, HOMA-IR (Homeostatic Model Assessment of Insulin Resistance), blood lipemic levels, and body weight according to the schematic for each model below. ZDF rats were analyzed for indicated readouts for fifteen days post-treatment for OGTT at Day 29, and serum insulin and C-peptide at Day 31.
ZDF Rat Model—three treatment groups 1. Vehicle; 2. Compound 10 at 175 mg/kg; and 3. Pioglitazone at 30 mg/kg; n=10 per group. Daily dosing zero to sixteen days QD→drug wash out at sixteen to twenty-nine days. Rats were monitored for the following parameters through dosing and wash out phases—body weight, fasting blood sugar, blood insulin, C-peptide, and OGTT.

[2] = system: Human ex vivo PDX tissue models harboring KRAS mutations; experiment: Ex vivo KRAS-mutated PDX tissue viability (CellTiter Glo, six days); type: cell-based; details: six-day treatment, all samples
Protocol: MOLM-13 and MiaPaCa-2 cells were incubated with Compound A for twenty-four hours and were analyzed by RNA-seq on an Illumina NextSeq 550 platform. […] Cell viability was measured using CellTiterGlo. Human ex vivo PDX tissue models harboring KRAS mutations were cultured with Compound A and clinical reversible menin inhibitors for six days. Cell viability was measured using CellTiter Glo.

[3] = 16 days treatment, listed as Compound 10

With `C=CC(=O)N[C@@H]1CCCN(Cc2ccnc(C(=O)Nc3ccc(-c4cc5c(N6CCOCC6)ncnc5[nH]4)cc3)c2)C1` [Compound A, N-[4-[4-(4-morpholinyl)-7H-pyrrolo[2,3-d]pyrimidin-6-yl]phenyl]-4-[[3(R)-[(1-oxo-2-propen-1-yl)amino]-1-piperidinyl]methyl]-2-pyridinecarboxamide] the blood lipemic levels [1, 3] was “significantly reduces; also recorded: Significant reductions”, the body weight [1, 3] was “reduces body weight; also recorded: Significant reductions” and the “oral glucose tolerance test, glucose control” value ([1]; Day 29, after fourteen days of no treatment) was “significant glucose control”. The “oral glucose tolerance test, glucose control” value ([1]; after fifteen days of treatment) was “significant glucose control”, the “serum insulin and C-peptide levels” value ([1]; after two weeks of treatment, p<0.05) was “significantly reduced” and the “insulin in the non-fasting and fasting states” value ([1]; compared to vehicle and control) was “significant reduction”. For the same compound, the “4-hour fasting insulin and glucose” value ([1]; no therapy for two weeks) was “increasing insulin and glucose lowering”, the “insulin resistance (HOMA-IR)” value ([1]; non-fasting and fasting, listed as Compound 10) was “significant reduction; also recorded: increases insulin sensitivity; also recorded: reduced” and the “glucose in the non-fasting and fasting states” value ([1]; oral gavage Days 1-16, compared to vehicle and control) was “significant reduction”. The C-peptide ([1]; two weeks after therapy) was “increasing C-peptide” and the “growth of ex vivo preclinical models” value [2] was “Complete abrogation of growth”.
